Source: article PMC4116331 (Journal of molecular biology, 2014)
Like-named read-outs stand apart in the source and are kept apart here.

Experiments:
[1] = target: RT DNA polymerase activity (Human immunodeficiency virus type 1 group M subtype B, UniProt P04585); assay: RT RNA-dependent DNA polymerase activity; assay type: biochemical, HIV-1
RT-RNase H [2] = settings: read-out: IC50, RT-RNase H, cited from earlier work
RT-RNase H [3] = assay: RT-RNase H inhibition of other RNHIs; assay type: biochemical, HIV-1
[4] = read-out: In vitro IC50 RT DNA pol, pH 7.4, 1 mM Mg2+

O=C(O)Cc1cc(=O)oc2c(O)c(O)ccc12 [Compound F3284-8495, (7,8-dihydroxy-2-oxo-2H-chromen-4-yl)acetic acid]
IC50 [1]: > 10000 nM | Inhibition of RT DNA polymerase activity ([1]; at 10 µM, the highest concentration tested): no detectable inhibition

O=c1cc(CN2CCN(C(c3ccccc3)c3ccccc3)CC2)c2ccc(O)c(O)c2o1 [Compound F3385-2581]
IC50 [1, 4]: 2200 nM

COc1ccc(N2CCN(Cc3cc(=O)oc4c(O)c(O)ccc34)CC2)cc1.Cl.Cl [Compound F3385-2588]
Inhibition of the DNA polymerase activity of RT (in words) [1]: did not inhibit | IC50 [1, 4]: > 10000 nM

O=c1cc(CN2CCN(c3cccc(Cl)c3)CC2)c2ccc(O)c(O)c2o1 [Compound F3385-2590]
IC50 [1, 4]: 2500 nM

CC(C)c1ccc(O)c(=O)c(O)c1 [β-Thujaplicinol, β-thujaplicinol]
IC50 (RT-RNase H [2]; 31): 210 nM | Fold greater activity than F3284-8495 against the RNase H of full-length RT (RT-RNase H [3]): greater than 20 fold

manicol
IC50 (RT-RNase H [2]): 600 nM
